According to US20020137929A1, “1 - (3-heterocyclylphenyl) isothiourea, -isourea, -guanidine and -amidine herbicidal agents” (Intellectual Property Department, BASF Aktiengesellschaft, priority 1998, published 2002):

Experiments:
[1] = tested on: TRZAWR (Wheat, Winter, cv Riband); assay: Preemergence herbicidal evaluation; format: in vivo, Triticum aestivum; conditions: rated 4-5 weeks after treatment
Procedure, shortened: (§1)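 Herbicidal effect scored visually, 0-9, at 4 to 5 weeks against a control; compound applied preemergence by aqueous acetone spray to seeded soil at about 0.0156 to 0.500 kg/ha.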

GALAP (Galium) = assay: Postemergence herbicidal evaluation; format: in vivo, Galium aparine
Procedure, shortened: (§2)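 Visual 0-9 injury score (stand, vigor, malformation, size, chlorosis, appearance vs untreated) taken four to five weeks post-spray, averaged across repeat tests. Test plants about two weeks old; foliar spray of acetone/water (1:1) with 0.5% surfactant delivering ~0.0156-0.500 kg active/ha.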

[2] = tested on: IPOHE (Morningglory, Ivyleaf); assay: Preemergence herbicidal evaluation; format: in vivo, Ipomoea hederacea; conditions: rated 4-5 weeks after treatment
Procedure, shortened: as §1

CYPSE (Flatsedge) [3] = assay: Preemergence weed control under flooded paddy conditions; format: in vivo, Cyperus serotinus; conditions: rated 3-4 weeks after treatment
Procedure, shortened: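 Ratings on a 0-9 visual scale cover stand, vigor, malformation, size, chlorosis and overall appearance relative to a control, taken three to four weeks post-treatment. Application was into flood water over freshly sown silt loam at roughly 0.0313 to 0.500 kg/ha.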

CYPSE (Flatsedge) [4] = assay: Postemergence weed control under flooded paddy conditions; format: in vivo, Cyperus serotinus; conditions: postemergence weeds, 3-4 weeks after treatment
Procedure, shortened: (§3)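 Injury ratings (0–9 scale covering stand, vigor, malformation, size, chlorosis and overall appearance versus control) were made three to four weeks after treatment. Test material, about 0.0313 to 0.500 kg/ha a.i. in 50/50 v/v aqueous/acetone, was added to flood water 1.5 to 3 cm deep over 3 to 5 cm weeds and 1.5 to 2.5 leaf rice.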

ZEAMX (Corn, Field) [5] = assay: Postemergence herbicidal evaluation; format: in vivo, Zea mays
Procedure, shortened: as §2

CASOB (Sicklepod) = assay: Postemergence herbicidal evaluation; format: in vivo, Cassia obtusifolia
Procedure, shortened: as §2

[6] = tested on: ECHORC (Watergrass (Calif.)); assay: Preemergence weed control under flooded paddy conditions; format: in vivo, Echinochloa oryzoides; conditions: rated 3-4 weeks after treatment
Procedure, shortened: (§4)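 Visual injury scored 0-9 against control three to four weeks post-treatment, greenhouse-grown. Application: acetone/water (50/50) solutions dosed directly into flood water (1.5-3 cm over silt loam, planted top 0.5 cm), roughly 0.0313 to 0.500 kg/ha active ingredient.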

[7] = tested on: ECHORC (Watergrass (Calif.)); assay: Postemergence weed control under flooded paddy conditions; format: in vivo, Echinochloa oryzoides; conditions: postemergence weeds, 3-4 weeks after treatment
Procedure, shortened: as §3

AMBEL (Ragweed, Common) = assay: Preemergence herbicidal evaluation; format: in vivo, Ambrosia artemisifolia; conditions: rated 4-5 weeks after treatment
Procedure, shortened: as §1

[8] = tested on: CHEAL (Lambsquarters, Common); assay: Preemergence herbicidal evaluation; format: in vivo, Chenopodium album; conditions: rated 4-5 weeks after treatment
Procedure, shortened: as §1

ZEAMX (Corn, Field) [9] = assay: Preemergence herbicidal evaluation; format: in vivo, Zea mays; conditions: rated 4-5 weeks after treatment
Procedure, shortened: as §1

CYPIR (Rice Flatsedge) = assay: Preemergence weed control under flooded paddy conditions; format: in vivo, Cyperus iria; conditions: rated 3-4 weeks after treatment
Procedure, shortened: as §4

ORYSAT (Rice, Tebonnet) = assay: Preemergence herbicidal evaluation; format: in vivo, Oryza sativa, (L.) Tebonnet; conditions: rated 4-5 weeks after treatment
Procedure, shortened: as §1

## COC(=O)CCCN1C(=O)CSC1=Nc1cc(-n2c(=O)cc(C(F)(F)F)n(C)c2=O)c(F)cc1Cl [Compound 29, Methyl 2-{{2-chloro-5-[3,6-dihydro-3-methyl-2,6-dioxo-4-(trifluoromethyl)-1(2H)-pyrimidinyl]-4-fluorophenyl}imino}-4-oxo-3-thiazolidinebutyrate]
[1]; rate 0.0625 kg/ha
  Preemergence herbicidal rating TRZAWR: 0.0
[1]; rate 0.1250 kg/ha
  Preemergence herbicidal rating TRZAWR: 0.0
[1]; rate 0.2500 kg/ha
  Preemergence herbicidal rating TRZAWR: 4.0
GALAP (Galium); Rate 0.0158 kg/ha
  Postemergence herbicidal rating GALAP: 1.0
GALAP (Galium); Rate 0.0315 kg/ha
  Postemergence herbicidal rating GALAP: 1.0
GALAP (Galium); Rate 0.0630 kg/ha
  Postemergence herbicidal rating GALAP: 7.0
[2]; rate 0.0625 kg/ha
  Preemergence herbicidal rating IPOHE: 0.0
[2]; rate 0.1250 kg/ha
  Preemergence herbicidal rating IPOHE: 0.0
[2]; rate 0.2500 kg/ha
  Preemergence herbicidal rating IPOHE: 4.0
CYPSE (Flatsedge) [3]; 0.0313 kg/ha
  Herbicidal rating CYPSE: 0.0
CYPSE (Flatsedge) [3]; 0.0625 kg/ha
  Herbicidal rating CYPSE: 0.0
CYPSE (Flatsedge) [3]; 0.1250 kg/ha
  Herbicidal rating CYPSE: 0.0
CYPSE (Flatsedge) [3]; 0.2500 kg/ha
  Herbicidal rating CYPSE: 0.0
CYPSE (Flatsedge) [4]; rate 0.0313 kg/ha
  Herbicidal rating CYPSE: 0.0
CYPSE (Flatsedge) [4]; rate 0.0625 kg/ha
  Herbicidal rating CYPSE: 0.0
CYPSE (Flatsedge) [4]; rate 0.1250 kg/ha
  Herbicidal rating CYPSE: 0.0
CYPSE (Flatsedge) [4]; rate 0.2500 kg/ha
  Herbicidal rating CYPSE: 0.0
ZEAMX (Corn, Field) [5]; Rate 0.0158 kg/ha
  Postemergence herbicidal rating ZEAMX: 5.5
ZEAMX (Corn, Field) [5]; Rate 0.0315 kg/ha
  Postemergence herbicidal rating ZEAMX: 5.5
ZEAMX (Corn, Field) [5]; Rate 0.0630 kg/ha
  Postemergence herbicidal rating ZEAMX: 7.5
CASOB (Sicklepod); Rate 0.0158 kg/ha
  Postemergence herbicidal rating CASOB: 0.0
CASOB (Sicklepod); Rate 0.0315 kg/ha
  Postemergence herbicidal rating CASOB: 0.0
CASOB (Sicklepod); Rate 0.0630 kg/ha
  Postemergence herbicidal rating CASOB: 0.0
[6]; 0.0313 kg/ha
  Herbicidal rating ECHORC: 4.0
[6]; 0.0625 kg/ha
  Herbicidal rating ECHORC: 7.0
[6]; 0.1250 kg/ha
  Herbicidal rating ECHORC: 7.0
[6]; 0.2500 kg/ha
  Herbicidal rating ECHORC: 7.0
[7]; rate 0.0313 kg/ha
  Herbicidal rating ECHORC: 4.0
[7]; rate 0.0625 kg/ha
  Herbicidal rating ECHORC: 7.0
[7]; rate 0.1250 kg/ha
  Herbicidal rating ECHORC: 7.0
[7]; rate 0.2500 kg/ha
  Herbicidal rating ECHORC: 7.0
AMBEL (Ragweed, Common); rate 0.0625 kg/ha
  Preemergence herbicidal rating AMBEL: 0.0
AMBEL (Ragweed, Common); rate 0.1250 kg/ha
  Preemergence herbicidal rating AMBEL: 0.0
AMBEL (Ragweed, Common); rate 0.2500 kg/ha
  Preemergence herbicidal rating AMBEL: 0.0
[8]; rate 0.0625 kg/ha
  Preemergence herbicidal rating CHEAL: 0.0
[8]; rate 0.1250 kg/ha
  Preemergence herbicidal rating CHEAL: 0.0
[8]; rate 0.2500 kg/ha
  Preemergence herbicidal rating CHEAL: 0.0
ZEAMX (Corn, Field) [9]; rate 0.0625 kg/ha
  Preemergence herbicidal rating ZEAMX: 0.0
ZEAMX (Corn, Field) [9]; rate 0.1250 kg/ha
  Preemergence herbicidal rating ZEAMX: 0.0
ZEAMX (Corn, Field) [9]; rate 0.2500 kg/ha
  Preemergence herbicidal rating ZEAMX: 6.0
CYPIR (Rice Flatsedge); 0.0313 kg/ha
  Herbicidal rating CYPIR: 0.0
CYPIR (Rice Flatsedge); 0.0625 kg/ha
  Herbicidal rating CYPIR: 0.0
CYPIR (Rice Flatsedge); 0.1250 kg/ha
  Herbicidal rating CYPIR: 0.0
CYPIR (Rice Flatsedge); 0.2500 kg/ha
  Herbicidal rating CYPIR: 0.0
ORYSAT (Rice, Tebonnet); rate 0.0625 kg/ha
  Preemergence herbicidal rating ORYSAT: 0.0
ORYSAT (Rice, Tebonnet); rate 0.1250 kg/ha
  Preemergence herbicidal rating ORYSAT: 0.0
ORYSAT (Rice, Tebonnet); rate 0.2500 kg/ha
  Preemergence herbicidal rating ORYSAT: 3.0

## CCOC(=O)CN1C(=O)C(Cc2ccccc2OC)SC1=Nc1cc(-n2c(=O)cc(C(F)(F)F)n(C)c2=O)c(F)cc1Cl (stereo not shown) [Compound 37, Ethyl 2-{{2-chloro-5-[3,6-dihydro-3-methyl-2,6-dioxo-4-(trifluoromethyl)-1(2H)-pyrimidinyl]-4-fluorophenyl}imino}-5-(o-methoxybenzyl)-4-oxo-3-thiazolidineacetate]
[1]; rate 0.1250 kg/ha
  Preemergence herbicidal rating TRZAWR: 0.0
[1]; rate 0.2500 kg/ha
  Preemergence herbicidal rating TRZAWR: 0.0
GALAP (Galium); Rate 0.0158 kg/ha
  Postemergence herbicidal rating GALAP: 1.0
GALAP (Galium); Rate 0.0315 kg/ha
  Postemergence herbicidal rating GALAP: 3.0
GALAP (Galium); Rate 0.0630 kg/ha
  Postemergence herbicidal rating GALAP: 4.0
[2]; rate 0.1250 kg/ha
  Preemergence herbicidal rating IPOHE: 0.0
[2]; rate 0.2500 kg/ha
  Preemergence herbicidal rating IPOHE: 0.0
CYPSE (Flatsedge) [3]; 0.0313 kg/ha
  Herbicidal rating CYPSE: 0.0
CYPSE (Flatsedge) [3]; 0.0625 kg/ha
  Herbicidal rating CYPSE: 0.0
CYPSE (Flatsedge) [3]; 0.1250 kg/ha
  Herbicidal rating CYPSE: 0.0
CYPSE (Flatsedge) [3]; 0.2500 kg/ha
  Herbicidal rating CYPSE: 0.0
CYPSE (Flatsedge) [4]; rate 0.0313 kg/ha
  Herbicidal rating CYPSE: 0.0
CYPSE (Flatsedge) [4]; rate 0.0625 kg/ha
  Herbicidal rating CYPSE: 0.0
CYPSE (Flatsedge) [4]; rate 0.1250 kg/ha
  Herbicidal rating CYPSE: 0.0
CYPSE (Flatsedge) [4]; rate 0.2500 kg/ha
  Herbicidal rating CYPSE: 0.0
ZEAMX (Corn, Field) [5]; Rate 0.0158 kg/ha
  Postemergence herbicidal rating ZEAMX: 3.5
ZEAMX (Corn, Field) [5]; Rate 0.0315 kg/ha
  Postemergence herbicidal rating ZEAMX: 4.0
ZEAMX (Corn, Field) [5]; Rate 0.0630 kg/ha
  Postemergence herbicidal rating ZEAMX: 4.0
CASOB (Sicklepod); Rate 0.0158 kg/ha
  Postemergence herbicidal rating CASOB: 0.0
CASOB (Sicklepod); Rate 0.0315 kg/ha
  Postemergence herbicidal rating CASOB: 0.0
CASOB (Sicklepod); Rate 0.0630 kg/ha
  Postemergence herbicidal rating CASOB: 0.0
[6]; 0.0313 kg/ha
  Herbicidal rating ECHORC: 4.0
[6]; 0.0625 kg/ha
  Herbicidal rating ECHORC: 6.0
[6]; 0.1250 kg/ha
  Herbicidal rating ECHORC: 7.0
[6]; 0.2500 kg/ha
  Herbicidal rating ECHORC: 7.0
[7]; rate 0.0313 kg/ha
  Herbicidal rating ECHORC: 4.0
[7]; rate 0.0625 kg/ha
  Herbicidal rating ECHORC: 6.0
[7]; rate 0.1250 kg/ha
  Herbicidal rating ECHORC: 7.0
[7]; rate 0.2500 kg/ha
  Herbicidal rating ECHORC: 7.0
AMBEL (Ragweed, Common); rate 0.1250 kg/ha
  Preemergence herbicidal rating AMBEL: 0.0
AMBEL (Ragweed, Common); rate 0.2500 kg/ha
  Preemergence herbicidal rating AMBEL: 0.0
[8]; rate 0.1250 kg/ha
  Preemergence herbicidal rating CHEAL: 9.0
[8]; rate 0.2500 kg/ha
  Preemergence herbicidal rating CHEAL: 9.0
ZEAMX (Corn, Field) [9]; rate 0.1250 kg/ha
  Preemergence herbicidal rating ZEAMX: 0.0
ZEAMX (Corn, Field) [9]; rate 0.2500 kg/ha
  Preemergence herbicidal rating ZEAMX: 0.0
CYPIR (Rice Flatsedge); 0.0313 kg/ha
  Herbicidal rating CYPIR: 0.0
CYPIR (Rice Flatsedge); 0.0625 kg/ha
  Herbicidal rating CYPIR: 0.0
CYPIR (Rice Flatsedge); 0.1250 kg/ha
  Herbicidal rating CYPIR: 0.0
CYPIR (Rice Flatsedge); 0.2500 kg/ha
  Herbicidal rating CYPIR: 0.0
ORYSAT (Rice, Tebonnet); rate 0.1250 kg/ha
  Preemergence herbicidal rating ORYSAT: 0.0
ORYSAT (Rice, Tebonnet); rate 0.2500 kg/ha
  Preemergence herbicidal rating ORYSAT: 0.0
